The values that follow come from patent US7932422B2, “Use of chlorine guanabenz derivatives for treating polyglutamine expansion associated diseases” (priority 2006, dated 2011).

“Also recorded” adds a separate entry of the source. Where a name gives a salt, the structure may show the parent alone.

The test system of data set [1] is full length endogenous Huntingtin in 293T cells. The data set is described as follows: immunoblot of full length endogenous Huntingtin in 293T cells. Format: cell-based. The note with it: same extracts as for the N-terminal fragment. The protocol: b: 293T cells were transfected with Htt48 and treated with the indicated compounds in DMSO at the indicated doses or DMSO alone 4 h posttransfection. SDS lysates collected 48 h post-transfection were analyzed on a 10% SDS-PAGE followed by immunoblot with Htt 2B4 and vimentin antibodies. To reveal full length Huntingtin, the same extracts were analyzed on a 4.5% SDS-PAGE followed by immunoblot PAGE followed by immunoblot with an oligoclonal mixture of Huntingtin antibodies: 2B4, 4C8 and 2E8.
(§1) Psi114 and Cl-Psi114 reduce polyQ accumulation both in their soluble and insoluble form. In developing therapeutic approaches, targeting specifically the pathogenic fragment of Huntingtin is a fundamental concern because Huntingtin is an essential gene. The inventors tested the effect of active compounds on endogenous full length Huntingtin in the same extracts as tested for the N-terminal fragment of Huntingtin. Psi114 and Cl-Psi114 have no effect on the levels of full length endogenous Huntingtin in 293T cells while these 2 compounds effectively reduce accumulation of the N-terminal pathogenic fragment of Huntingtin (FIG. 1b). Cl-Psi114 has also no effect on the level of full length endogenous Huntingtin in HD patient lymphoblastoid cell line.
(In general: A western blot detects proteins with antibodies after separation by electrophoresis.)

For data set [2], the system named is full length endogenous Huntingtin in HD patient lymphoblastoid cell line. Description: full length endogenous Huntingtin in HD patient lymphoblastoid cell line. The data set is classed as cell-based.
Description: as §1

Data set [3] deals with aggregated Htt48 in 293T cells. The data set is described as follows: filter retardation assay of lysates of Htt48-transfected 293T cells. The note with it: lysates 48 h post-transfection. The data set is classed as cell-based.
Data set [4] deals with truncated huntingtin with 73Q repeats (T73) in NG108-15 cells. The data set is described as follows: NG108-15 neuronal-like cell model of HD, immunoblot of T73. The data set is classed as cell-based. The note with it: drugs added 12 h post-induction, extracts 3 days after treatment. The protocol: (§2) NG108-15 cells were induced for differentiation and T73 expression as described in Lunkes et al, 2002 and treated with the indicated compounds in DMSO at the indicated doses or DMSO alone 12 h post-induction. SDS lysates collected […] were analyzed by SDS-PAGE followed by immunoblot with Htt 2B4 and vimentin antibodies. Images were acquired and quantified with the Chemi-Smart system (Vilber Lourmat). Quantification of T73 signals is presented as histograms. Signal from DMSO treated cells is used as a reference and set as 1.
The Guanabenz (Psi114) and Chloroguanabenz (Cl-Psi114) effects were so far tested in actively dividing yeast and 293T cells (Lunkes et al., 1998). Because neurons are the target of Huntington and the threat for accumulation of misfolded proteins being exacerbated in neuronal, post-mitotic cells, the inventors next tested the effect of Psi114 and Cl-Psi114 in NG10815 neuronal-like cell model of HD. NG108-15 cells were induced for expression of truncated huntingtin with 73Q repeats (T73) and differentiation.
Drugs were added 12 h post-induction at the indicated doses. Protein extracts were collected 3 days after treatment and analyzed by immunoblots. […] The aggregates formed in these cells were below the detection level of the filter retardation assay precluding a robust quantitative analysis of the effects of the molecules on aggregate. […]

Data set [5] deals with yeast prions. Format: cell-based. The note with it: erg6Δ [PSI+] yeast strain, compound spotted on filter, halo of red [psi-] colonies.
Data set [6] has as its system NG108-15 cells. Description: vimentin level in NG108-15 neuronal-like cell model of HD. The data set is classed as cell-based. The note with it: drugs added 12 h post-induction, extracts 3 days after treatment. The method, then: as §2
Drugs were added 12 h post-induction at the indicated doses. Protein extracts were collected 3 days after treatment and analyzed by immunoblots. […] The aggregates formed in these cells were below the detection level of the filter retardation assay precluding a robust quantitative analysis of the effects of the molecules on aggregate. However, because both aggregates and pathological symptoms are reversible with blockade of pathological protein expression, it is likely that aggregates in NG108-15 cells will diminish as a consequence of decreased accumulation of T73 by treating neurons with Psi114 or Cl-Psi114.

Data set [7] relates to N-terminal fragment of Huntingtin derivative with 48 glutamines (Htt48) in 293T cells. The data set is described as follows: 293T cells transfected with Htt48, immunoblot of SDS lysates with Htt 2B4 antibody. Format: cell-based. The note with it: for activity on Htt48 accumulation: 293T cells, up to 100 μM.
Data set [8] has as its system 293T cells.

Consider `N=C(N)N/N=C/c1c(Cl)ccc(Cl)c1Cl` [Cl-Psi114, Chloroguanabenz], for which the “effect on levels of full length endogenous Huntingtin” value in data set [1] is on record as “no effect”. In addition, the “effect on level of full length endogenous Huntingtin” value in data set [2] is on record as “no effect”. Also, the “levels of aggregated Htt48” value in data set [3] is reported as “decrease in a dose dependent manner”. Besides, the T73 level result in data set [4] is “reduction of T73 in a dose dependant manner”. Moreover, the “activity in the yeast anti-prion screen” value in data set [5] is “active; also recorded: more active in the yeast anti-prion screen that Psi114”. Also, the vimentin level result in data set [6] is listed as “remains unaltered”.

For `Nc1c(/N=N/c2ccc(-c3ccc(/N=N/c4cc(S(=O)(=O)O)c5ccccc5c4N)cc3)cc2)cc(S(=O)(=O)O)c2ccccc12` [Congo red], in data set [7] (dose of 500 μM), the “activity in the Htt48 293T system” value is listed as “barely detectable activity”.

For the molecule `N=C(N)N` [GuHCL, guanidine hydrochloride], in data set [5], the “activity in the yeast anti-prion screen” value is “positive control”.

For the molecule `N=C(N)N/N=C/c1c(Cl)cccc1Cl` [Psi114, Guanabenz], in data set [1], the “effect on levels of full length endogenous Huntingtin” value is reported as “no effect”. The “levels of aggregated Htt48” value in data set [3] was “decrease in a dose dependent manner; also recorded: delayed”. In data set [4], the T73 level result is on record as “reduction of T73 in a dose dependant manner”. In addition, in data set [5], the “activity in the yeast anti-prion screen” value is “potent activity against yeast prions; also recorded: active in yeast cells”. Besides, the vimentin level entry in data set [6] is given as “remains unaltered”.

For `Clc1cccc(Cl)c1N=C1NCCN1` [Psi211, Clonidine], the “activity on Htt48 accumulation” value in data set [7] is “completely inactive”.

`c1ccc(C2CC2)c(OCC2=NCCN2)c1` [Psi214, Cirazoline]: the toxicity result in data set [8] is recorded as “some toxicity”.

`C1COC(NC(C2CC2)C2CC2)=N1` [Psi215, Rilmenidine]: in data set [8], the toxicity result is “some toxicity”.

In the case of `CCC1(C2=NCCN2)Cc2ccccc2O1` (centres unmarked) [Psi216, Efaroxan], the “activity on Htt48 accumulation” value in data set [7] was “completely inactive”.
